Source: ChEMBL document CHEMBL3217548, “Biological activity and DNA binding studies of 2-substituted benzimidazo[1,2-a]quinolines bearing different amino side chains” (Medchemcomm, 2013)
pIC50: −log10 of the molar value. Active and inactive are the calls of the source. The rule behind the calls is not given here.

What was measured:
Calf thymus DNA [1] = assay: Binding affinity to calf thymus DNA assessed as DNA intercalation by circular dichroism analysis; assay type: nucleic-acid assay; settings: Bos taurus
HCT-116 [2] = assay: Cell cycle arrest in human HCT116 cells assessed as accumulation at S phase at 0.1 uM after 48 hrs by propidium iodide staining-based FACS analysis (reference value: 12+/- 5 %); assay type: functional
[3] = Cytotoxicity against human H460 cells after 72 hrs by MTT assay; assay type: functional, cell-based; settings: NCI-H460, 72 h
HCT-116 [4] = assay: Cell cycle arrest in human HCT116 cells assessed as accumulation at S phase at 1 uM after 24 hrs by propidium iodide staining-based FACS analysis (reference value: 48 +/- 6 %); assay type: functional
HCT-116 [5] = assay: Cell cycle arrest in human HCT116 cells assessed as accumulation at G2/M phase at 0.1 uM after 48 hrs by propidium iodide staining-based FACS analysis (reference value: 28 +/- 3 %); assay type: functional
HCT-116 [6] = assay: Cell cycle arrest in human HCT116 cells assessed as accumulation at subG1 phase at 0.1 uM after 48 hrs by propidium iodide staining-based FACS analysis (reference value: 5 +/- 2 %); assay type: functional
HCT-116 [7] = assay: Cell cycle arrest in human HCT116 cells assessed as accumulation at G1 phase at 0.1 uM after 48 hrs by propidium iodide staining-based FACS analysis (reference value: 60 +/- 2 %); assay type: functional
Calf thymus DNA [8] = assay: Binding affinity to calf thymus DNA assessed as bathochromic shift at 20 uM by UV/visible spectrophotometry; assay type: nucleic-acid assay; settings: Bos taurus
Homo sapiens = organism: Homo sapiens; assay: Inhibition of human DNA topoisomerase 2 assessed as inhibition of DNA cleavage
Escherichia coli [9] = assay: Binding affinity to Escherichia coli pUC19 plasmid assessed as induction of topoisomerase1-mediated DNA relaxation at 1 uM incubated for 45 mins prior to topoisomerase1 addition by agarose gel electrophoresis
[10] = Binding affinity to DNA (unknown origin) at 1 to 10 uM after 15 mins by DNA footprinting assay
[11] = target: T1, DNA topoisomerase 1 (Homo sapiens) (UniProt P11387); assay: Inhibition of human DNA topoisomerase 1 assessed as inhibition of DNA cleavage
T1 sequence (whole entry): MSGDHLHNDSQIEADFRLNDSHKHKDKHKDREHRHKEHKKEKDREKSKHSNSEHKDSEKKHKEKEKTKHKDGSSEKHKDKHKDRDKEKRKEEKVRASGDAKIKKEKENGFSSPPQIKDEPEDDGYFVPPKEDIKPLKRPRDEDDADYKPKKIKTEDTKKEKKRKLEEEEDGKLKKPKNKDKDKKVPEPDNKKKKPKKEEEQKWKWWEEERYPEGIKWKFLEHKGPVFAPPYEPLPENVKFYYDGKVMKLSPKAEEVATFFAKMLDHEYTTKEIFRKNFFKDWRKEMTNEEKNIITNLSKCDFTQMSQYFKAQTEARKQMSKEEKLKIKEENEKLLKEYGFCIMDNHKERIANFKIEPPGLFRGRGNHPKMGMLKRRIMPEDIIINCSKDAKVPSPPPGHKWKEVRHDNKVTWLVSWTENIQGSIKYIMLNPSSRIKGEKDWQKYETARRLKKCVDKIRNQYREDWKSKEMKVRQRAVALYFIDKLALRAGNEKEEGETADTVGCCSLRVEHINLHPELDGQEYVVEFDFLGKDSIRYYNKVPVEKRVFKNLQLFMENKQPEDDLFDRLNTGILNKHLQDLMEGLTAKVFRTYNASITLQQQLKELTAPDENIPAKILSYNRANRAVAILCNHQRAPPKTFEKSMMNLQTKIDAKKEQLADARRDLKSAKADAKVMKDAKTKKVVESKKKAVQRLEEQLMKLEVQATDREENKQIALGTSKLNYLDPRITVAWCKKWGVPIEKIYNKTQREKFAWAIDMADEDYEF

HCT-116 [12] = assay: Cell cycle arrest in human HCT116 cells assessed as accumulation at G1 phase at 0.1 uM after 24 hrs by propidium iodide staining-based FACS analysis (reference value: 23 +/- 2 %); assay type: functional
HCT-116 [13] = assay: Cell cycle arrest in human HCT116 cells assessed as accumulation at G1 phase at 1 uM after 48 hrs by propidium iodide staining-based FACS analysis (reference value: 60 +/- 2 %); assay type: functional
HCT-116 [14] = assay: Cell cycle arrest in human HCT116 cells assessed as accumulation at subG1 phase at 1 uM after 24 hrs by propidium iodide staining-based FACS analysis (reference value: 2 +/- 0.1 %); assay type: functional
HCT-116 [15] = assay: Cytotoxicity against human HCT116 cells after 72 hrs by MTT assay; assay type: functional, cell-based; settings: HCT-116, 72 h
HCT-116 [16] = assay: Cell cycle arrest in human HCT116 cells assessed as accumulation at S phase at 0.1 uM after 24 hrs by propidium iodide staining-based FACS analysis (reference value: 48 +/- 6 %); assay type: functional
[17] = Drug uptake in human H460 cell nucleoli at 10 uM after 2 hrs by fluorescence microscopy; assay type: ADME, cell-based; settings: h460, 2 h
HCT-116 [18] = assay: Cell cycle arrest in human HCT116 cells assessed as accumulation at subG1 phase at 0.1 uM after 24 hrs by propidium iodide staining-based FACS analysis (reference value: 2 +/- 0.1 %); assay type: functional
HCT-116 [19] = assay: Cell cycle arrest in human HCT116 cells assessed as accumulation at G2/M phase at 1 uM after 24 hrs by propidium iodide staining-based FACS analysis (reference value: 29 +/- 8 %); assay type: functional
HCT-116 [20] = assay: Cell cycle arrest in human HCT116 cells assessed as accumulation at subG1 phase at 5 uM after 24 hrs by propidium iodide staining-based FACS analysis; assay type: functional
HCT-116 [21] = assay: Cell cycle arrest in human HCT116 cells assessed as accumulation at G2/M phase at 0.1 uM after 24 hrs by propidium iodide staining-based FACS analysis (reference value: 29 +/- 8 %); assay type: functional
Calf thymus DNA [22] = assay: Binding affinity to calf thymus DNA assessed as change in melting temperature at 0.5 drug/DNA ratio by spectrophotometry; assay type: nucleic-acid assay; settings: Bos taurus
Calf thymus DNA [23] = assay: Binding affinity to calf thymus DNA assessed as hypochromic shift at 20 uM by UV/visible spectrophotometry; assay type: nucleic-acid assay; settings: Bos taurus
HCT-116 [24] = assay: Cell cycle arrest in human HCT116 cells assessed as accumulation at G1 phase at 1 uM after 24 hrs by propidium iodide staining-based FACS analysis (reference value: 23 +/- 2 %); assay type: functional
Escherichia coli [25] = assay: Binding affinity to Escherichia coli pUC19 plasmid assessed as nicked DNA at 0.1 to 5 uM by ethidium bromide staining-based agarose gel electrophoresis
HCT-116 [26] = assay: Cell cycle arrest in human HCT116 cells assessed as accumulation at S phase at 1 uM after 48 hrs by propidium iodide staining-based FACS analysis (reference value: 12+/- 5 %); assay type: functional
HCT-116 [27] = assay: Cell cycle arrest in human HCT116 cells assessed as accumulation at G2/M phase at 1 uM after 48 hrs by propidium iodide staining-based FACS analysis (reference value: 28 +/- 3 %); assay type: functional
HCT-116 [28] = assay: Cell cycle arrest in human HCT116 cells assessed as accumulation at subG1 phase at 1 uM after 48 hrs by propidium iodide staining-based FACS analysis (reference value: 5 +/- 2 %); assay type: functional
MCF7 = assay: Cytotoxicity against human MCF7 cells after 72 hrs by MTT assay; assay type: functional, cell-based; settings: MCF7, 72 h
DNA = assay: Induction of DNA damage in plasmid DNA in E. coli S30 cell-free system assessed as inhibition of EGFP translation at 50 uM after 1 hr by fluorescence assay
HCT-116 [29] = assay: Cell cycle arrest in human HCT116 cells assessed as accumulation at subG1 phase after 24 hrs by propidium iodide staining-based FACS analysis; assay type: functional
[30] = Drug uptake in human H460 cell endoplasmic reticulum at 10 uM after 2 hrs by fluorescence microscopy; assay type: ADME, cell-based; settings: h460, 2 h

- Activity (Calf thymus DNA [1]): Dose-dependent effect
- Activity (Calf thymus DNA [8]): Active
- Activity (Homo sapiens): inactive
- Activity (Escherichia coli [9]): Active
- Activity [10]: Active
- Activity [11]: inactive
- Drug uptake [17]: Active
- ΔTm (Calf thymus DNA [22]): 17.3 °C
- Activity (Calf thymus DNA [23]): Active
- Activity (Escherichia coli [25]): Active
- Drug uptake [30]: Active
Structure (SMILES): N#Cc1cc2ccc(N3CCNCC3)cc2n2c1nc1ccccc12
- Activity (HCT-116 [2]): 11%
- pIC50 [3]: 6.70
- Activity (HCT-116 [4]): 0%
- Activity (HCT-116 [5]): 30%
- Activity (HCT-116 [6]): 11%
- Activity (HCT-116 [7]): 59%
- Activity (HCT-116 [12]): 19%
- Activity (HCT-116 [13]): 30%
- Activity (HCT-116 [14]): 12%
- pIC50 (HCT-116 [15]): 7.22
- Activity (HCT-116 [16]): 1%
- Activity (HCT-116 [18]): 2%
- Activity (HCT-116 [19]): 85%
- Activity (HCT-116 [20]): 40%
- Activity (HCT-116 [21]): 80%
- Activity (HCT-116 [24]): 15%
- Activity (HCT-116 [26]): 1%
- Activity (HCT-116 [27]): 69%
- Activity (HCT-116 [28]): 12%
- pIC50 (MCF7): 6.70
- inhibition at 50 µM (DNA): 38%
- Activity (HCT-116 [29]): Dose-dependent effect
